Where “and” joins values, the source holds several entries; their conditions need not be identical. Identical values can stand only once.

Assay [1] concerns control luciferase in RKO cells. Put plainly: Control (wild type) luciferase in RKO cells. To be noted: 50 mM 7773. Format: cell-based. As to the method:
The RKO cells were seeded in DMEM with 10% calf serum 24 hrs prior to the transfection. Transfection was done using Lipofectamine 2000 with reporter plasmids and Renilla-luciferase expressing vector (as internal control). After 24 hrs, cells were lysed using passive lysis buffer (Promega catalog #E1941). The lysates were cleared by centrifugation and its […] volume was mixed with […] of luciferase substrate solution for luminescence recording which was followed by addition of […] of Stop-glo solution (Promega catalog #E1910) with an additional luminescence reading. Both readings were detected by using GloMax 20/20 Luminometer (Promega), and the final value for each sample was the ratio of their two respective readings. To test the effects of 7773, transfected cells with reporter plasmids were washed with PBS after 24 hrs of transfection and incubated with medium containing 7773.

For a further assay, the target named is T1, Igf2bp1 KH12 di-domain (Homo sapiens, UniProt Q9NZI8).
T1 construct: KH12 (V194-N369); 6xHis/GST (N, cleaved yes); made in house; host or cells: E. coli BL21(DE3)
T1 sequence (Q9NZI8 194-369): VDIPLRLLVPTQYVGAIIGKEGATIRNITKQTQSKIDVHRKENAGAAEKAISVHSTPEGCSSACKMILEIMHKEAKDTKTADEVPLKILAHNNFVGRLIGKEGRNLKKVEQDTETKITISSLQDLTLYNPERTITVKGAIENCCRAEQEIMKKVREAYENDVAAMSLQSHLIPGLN
Description: MST binding to Igf2bp1 di-domain KH12. As to the method:
(§1) Recombinant full-length Igf2bp1 protein was labelled with RED-tris-NTA dye using a Monolith NT His-Tag Labelling Kit (NanoTemper) while RRM12, KH12 and KH34 di-domain peptides were labelled using the Protein Labeling Kit RED NHS 2nd generation (NanoTemper). Labelled proteins were spun at 15,000 g for 5 min to eliminate aggregates. All samples were 2× labelled protein mix of Igf2bp1 (200 nM) in PBST and were combined (1:1) with serial dilutions of compound or Kras6 RNA in binding buffer (10 mMTris pH=7.5, 100 mM NaCl, 0.1 mM EDTA, 0.06% IPEGAL, 0.02 μg/μL tRNA, 2 mM DTT, 0.1 μg/μL heparin) in final volume of 20 μL, room temperature for 15 min. Samples were then loaded into standard capillaries (NanoTemper) and read in the Monolith NT.115 scanner (NanoTemper) using the red filter with reading conditions of 95% LED power and 40% MST power, 5 sec fluorescence before, 30 sec MST on, 5 sec fluorescence after and 25 sec delay between samples. Results were analyzed using the MO Control software (NanoTemper) for curve fitting to KD.

Another assay concerns H1299 cells. Put plainly: Wound healing (cell migration) assay, H1299 cells. Format: cell-based, human. As to the method: Cells were seeded in 96 IncuCyte® ImageLock plates (20×10^3 cells per well) for 24 hours, to a near confluency of 95%, before the addition of increasing concentrations of compound. After a further 24 hours, wells were scratched using the IncuCyte® 96-well WoundMaker Tool, and the cells cultured for an additional 48 hours using the IncuCyte® S3 Live-Cell Analysis System (Essen BioScience). The plate was imaged at increments of 120 minutes for a period of 48 hours, and then analyzed for relative wound healing.

The target in a further assay is T2, Igf2bp1 KH34 di-domain (Homo sapiens, UniProt Q9NZI8).
T2 construct: KH34 (P387-A574); 6xHis (N, cleaved yes); made in house; host or cells: E. coli BL21(DE3)
T2 sequence (Q9NZI8 387-574): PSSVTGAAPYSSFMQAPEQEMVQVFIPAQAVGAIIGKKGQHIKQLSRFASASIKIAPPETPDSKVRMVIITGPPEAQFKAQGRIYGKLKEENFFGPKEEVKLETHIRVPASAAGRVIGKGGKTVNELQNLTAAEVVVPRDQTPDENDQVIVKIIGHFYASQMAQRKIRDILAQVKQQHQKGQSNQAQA
Put plainly: MST binding to Igf2bp1 di-domain KH34. As to the method: as §1

The next assay concerns HEK293 cells. Description: Cell proliferation assay (Incucyte), HEK293 cells. Type of assay: cell-based, human. On the set-up: dose or concentration left out as unconfirmed. The note with it: HEK293, 7773. On the procedure: ES2, H1299 and HEK293 cells were seeded in a 96 well plate (5×10^3 cells per well) for 24 hours before adding the compound at increasing concentrations. After an additional 24 hours, the plate was incubated in an IncuCyte® S3 Live-Cell Analysis System (Essen BioScience). The wells were filmed for 72 hours, and then analyzed for proliferation rate Using IncuCyte® S3 Live-Cell Analysis System (Essen BioScience)

The next assay deals with ES2 cells. Put plainly: Real-time PCR of steady state RNA levels in ES2 cells. Type of assay: cell-based, human. Details: dose or concentration left out as unconfirmed. On the procedure: Primers were calibrated for several Igf2bp1 RNA targets (Table 3): […]
Cells were grown for 12 hours in 12 well plates prior to incubation with the compound at different concentrations for an additional 12 or 24 hours. Total RNA was then extracted using EZ-RNA total RNA isolation kit (Biological Industries) and cDNA prepared from the RNA using the First Strand cDNA Synthesis kit (Quanta bio). Real time PCR was performed with Fast SYBR Green Master Mix (Thermo Fisher Scientific), and cDNA expression analyzed with the Bio-Rad CFX Manager 3.1.

The target in assay [2] is T3, Igf2bp1 binding to Kras 6 RNA (Homo sapiens, UniProt Q9NZI8).
T3 construct: Recombinant full-length Igf2bp1 protein; made in house; host or cells: E. coli BL21(DE3)
T3 sequence (Q9NZI8 whole entry): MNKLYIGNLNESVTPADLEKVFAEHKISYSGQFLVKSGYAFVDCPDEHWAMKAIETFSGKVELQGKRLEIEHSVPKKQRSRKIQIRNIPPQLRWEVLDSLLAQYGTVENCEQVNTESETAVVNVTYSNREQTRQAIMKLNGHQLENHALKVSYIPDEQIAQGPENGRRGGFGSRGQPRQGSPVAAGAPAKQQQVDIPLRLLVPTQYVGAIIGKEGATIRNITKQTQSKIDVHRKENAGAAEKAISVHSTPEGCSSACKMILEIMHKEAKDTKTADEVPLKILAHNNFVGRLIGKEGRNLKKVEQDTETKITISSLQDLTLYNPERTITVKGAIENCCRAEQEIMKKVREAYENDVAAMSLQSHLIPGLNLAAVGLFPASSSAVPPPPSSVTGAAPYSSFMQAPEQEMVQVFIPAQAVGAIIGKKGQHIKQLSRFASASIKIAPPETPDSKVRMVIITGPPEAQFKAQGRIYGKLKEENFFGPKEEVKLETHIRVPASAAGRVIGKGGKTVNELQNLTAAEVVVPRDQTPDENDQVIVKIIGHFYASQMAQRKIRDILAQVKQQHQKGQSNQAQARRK
Put plainly: Fluorescence polarization (FP) assay of Igf2bp1 binding to fluorescent Kras 6 RNA. To be noted: FP dose response; read-out: IC50 for inhibition of Igf2bp1 binding to Kras 6 RNA. On the procedure:
For the small molecule screen, compounds were obtained from the collection maintained at the Grand Israel National Center for Personalized Medicine, consisting of molecules purchased from commercial vendors. Labelled RNA (10 nM) was incubated with recombinant Igf2bp1 protein (400 nM) in FAM-RNA buffer (10 mM Tris pH 8.0, 75 mM KCl, 0.5 mM EDTA, 1 mM DTT, 0.0188 U/μL RNAsin, 0.0005 μg/mL heparin, 0.0001 μg/μL tRNA, 0.01% Triton X-100, 3 mM MgCl2, 0.05% IGEPAL) at room temperature for 15 min. […] of this reaction mix was aliquoted with GNF WDII (USA) into wells of 1536 well plates, with a final concentration of […] compound or DMSO. The plates were spun down and read in a BMG Pherastar FS (Germany) plate reader plate reader, in FP mode with a 485/520/520 polarization filter, calibrated to 35 mP for free fluorescein with similar total intensity as experimental samples. […]
To determine the quality of the inventors screening assay, the Z′ factor for each plate was calculated with a Z′ factor greater than 0.5 indicating a robust assay suitable for high throughput screening. Compounds that altered the overall fluorescence intensity compared to controls were considered auto florescence and excluded from further analysis. […] Any small molecule that causes a change of more than three standard deviations from the mean is determined appropriate for further investigation.
For orientation: Polarisation of emitted light reports the rotation of a fluorescent probe.

One may read the Kd as the free concentration of one partner at which half of the binding sites on the other are occupied at equilibrium, for simple one-to-one binding. What is called IC50 is the midpoint of a concentration-inhibition curve. On to `O=C(c1ccc(Cn2cnnn2)cc1)N1CCCC(Nc2ccc3c(c2)OCO3)C1` (stereo not shown) [Compound 7773], for which the “Activity of wild type luciferase” value in assay [1] was “did not affect”. Besides, the “Binding to KH12 (MST)” value at Igf2bp1 KH12 di-domain is “no binding”. Also, the “Inhibition of wound healing” value is “discernible inhibition” in the assay on H1299 cells (H1299, 5 mM 7773) and “strongly inhibited” in the assay on H1299 cells (H1299, 20 mM 7773). Also, the affinity on Igf2bp1 KH34 di-domain, expressed as Kd, was 7.2 µM. For the same compound, in the assay with HEK293 cells, the Cell proliferation result is recorded as “remarkably unaffected”. Also, in the assay on ES2 cells (ES2, 7773, 12 hours), the “Steady state levels of CD44, Kras, cMyc and SRF RNA” value is listed as “reduced”. In addition, the “Steady state level of CD44 RNA” value with ES2 cells (ES2, 7773, 12 hours, appeared to recover after 24 hours) is listed as “strongly reduced”. Besides, in the assay on ES2 cells (ES2, 7773, 24 hours), the “Steady state levels of control RNAs (not targets of Igf2bp1)” value is listed as “not significantly affected”. Moreover, the IC50 in assay [2] was ~30 µM and 15 to 36 µM.

(Values after patent US20240025886A1, “INHIBITORS OF IGF2BP1-RNA BINDING” (YISSUM RESEARCH DEVELOPMENT COMPANY OF THE HEBREW …, priority 2020, published 2024).)
